Among the test systems are PC-3 prostate; SK-MEL-5 melanoma; HS 578T breast; SNB-75 CNS; OVCAR-3 ovarian; HOP-62 NSCLC; DU-145 prostate; KM12 colon; MALME-3M melanoma; HCC-2998 colon; SF-295 CNS.
Assay in all cases: DTP human tumour cell line panel, 48 h

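Following 48 hours of exposure in 96-well plates, responses at five concentrations were used to interpolate endpoints linearly. TGI: total growth inhibition.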 Where a SMILES comes first, the peptide text is derived from it. [ ]: non-standard residue; d: D form. pGlu = O=C1CC[CH](C(=O)O)N1

TGI data for twelve compounds are collected here from PubChem BioAssay (NCI).

Usually TGI stands for the concentration giving total growth inhibition. High values mean lower sensitivity of the cells, low ones greater sensitivity of the cells.

Turning to `CC(C)C1CSC2N1C(=O)C2(OCc1ccccc1)C1CC1` (configuration not stated), the TGI in the assay with PC-3 prostate, in the assay on SK-MEL-5 melanoma, with HS 578T breast, with SNB-75 CNS, in the assay with OVCAR-3 ovarian and in the assay with HOP-62 NSCLC was over 100 µM in each case. Moreover, the TGI in the assay with DU-145 prostate, in the assay with KM12 colon, in the assay with MALME-3M melanoma, with HCC-2998 colon and with SF-295 CNS was over 100 µM throughout.

For the compound `CC(NC(=O)C1CCC(=O)N1)C(=O)N1CCCC1C(N)=O` (stereo not drawn) ([pGlu]-Ala-Pro-NH2; configuration not given here), the TGI with PC-3 prostate, with SK-MEL-5 melanoma, in the assay with HS 578T breast, with SNB-75 CNS, in the assay with OVCAR-3 ovarian and with HOP-62 NSCLC was over 100 µM each time. In addition, the TGI with DU-145 prostate, in the assay with KM12 colon, in the assay with MALME-3M melanoma, in the assay with HCC-2998 colon and in the assay on SF-295 CNS was over 100 µM each time.

Take `C(=N\c1nc2cc3sc(/N=C/c4ccccc4)nc3cc2s1)/c1ccccc1`: the TGI was over 100 µM in the assay on PC-3 prostate; over 100 µM in the assay on SK-MEL-5 melanoma; 97.4 µM in the assay with HS 578T breast; over 100 µM with SNB-75 CNS; over 100 µM with OVCAR-3 ovarian; over 100 µM in the assay on HOP-62 NSCLC. The TGI in the assay with DU-145 prostate, in the assay on KM12 colon, in the assay with MALME-3M melanoma, in the assay on HCC-2998 colon and with SF-295 CNS was over 100 µM in each case.

On to `COC1OC2COC1(OCc1ccccc1)C1OC(C)(C)OC21` (configuration not stated), for which the TGI in the assay on PC-3 prostate, in the assay with SK-MEL-5 melanoma, with HS 578T breast, with SNB-75 CNS, in the assay with OVCAR-3 ovarian and in the assay with HOP-62 NSCLC was over 100 µM each time. Further, the TGI in the assay with DU-145 prostate, with KM12 colon, in the assay with MALME-3M melanoma, in the assay on HCC-2998 colon and with SF-295 CNS was over 100 µM each time.

In the case of `C=CCC1(C(=O)OC)CCC/C(=N\O)C1` (configuration not stated), the TGI in the assay with PC-3 prostate, in the assay with SK-MEL-5 melanoma, with HS 578T breast, in the assay with SNB-75 CNS, in the assay on OVCAR-3 ovarian and in the assay with HOP-62 NSCLC was over 10 µM in each case. Moreover, the TGI with DU-145 prostate, with KM12 colon, in the assay with MALME-3M melanoma, with HCC-2998 colon and in the assay on SF-295 CNS was over 10 µM each time.

As for `Cc1c(NC(=S)Nc2ccc([N+](=O)[O-])cc2)c(=O)n(-c2ccccc2)n1C`, the TGI in the assay with PC-3 prostate, in the assay on SK-MEL-5 melanoma, in the assay with HS 578T breast, in the assay with SNB-75 CNS, in the assay with OVCAR-3 ovarian and in the assay on HOP-62 NSCLC was over 100 µM in each case. The TGI with DU-145 prostate, with KM12 colon, in the assay on MALME-3M melanoma, in the assay with HCC-2998 colon and in the assay on SF-295 CNS was over 100 µM throughout.

For the compound `CC(NC1=NCCO1)c1ccccc1Cl` (configuration not stated), the TGI with PC-3 prostate, with SK-MEL-5 melanoma, in the assay with HS 578T breast, in the assay on SNB-75 CNS, with OVCAR-3 ovarian and in the assay with HOP-62 NSCLC was over 100 µM each time. Also, the TGI with DU-145 prostate, with KM12 colon, in the assay on MALME-3M melanoma, with HCC-2998 colon and in the assay on SF-295 CNS was over 100 µM throughout.

As to `CCn1c(SCC(=O)N/N=C2\SCC(=O)N2c2ccc(C)cc2)nc2ccccc2c1=O`, the total growth inhibition concentration (TGI) in the assay on PC-3 prostate was determined as 54.2 µM; in the assay with SK-MEL-5 melanoma it was 50 µM; in the assay on HS 578T breast, 41.7 µM; in the assay on SNB-75 CNS, 36.6 µM; in the assay on OVCAR-3 ovarian, 62.9 µM; with HOP-62 NSCLC it was 50.7 µM. The TGI with DU-145 prostate was 75 µM; with KM12 colon, 47.3 µM; with MALME-3M melanoma, 45.6 µM; in the assay on HCC-2998 colon, over 100 µM; in the assay on SF-295 CNS, 36.2 µM.

On to `ClCc1nc2ccccc2[nH]1`, for which the TGI in the assay on PC-3 prostate, in the assay on SK-MEL-5 melanoma, in the assay on HS 578T breast, with SNB-75 CNS, with OVCAR-3 ovarian and in the assay on HOP-62 NSCLC was over 100 µM throughout. In addition, the TGI with DU-145 prostate, in the assay on KM12 colon, in the assay with MALME-3M melanoma, with HCC-2998 colon and in the assay on SF-295 CNS was over 100 µM each time.

Take `OC1NC2Nc3ccccc3NC2NC1O` (configuration not stated): the TGI in the assay with PC-3 prostate, with SK-MEL-5 melanoma, in the assay on HS 578T breast, in the assay on SNB-75 CNS, in the assay with OVCAR-3 ovarian and with HOP-62 NSCLC was over 100 µM each time. Also, the TGI in the assay on DU-145 prostate, in the assay on KM12 colon, in the assay with MALME-3M melanoma, in the assay with HCC-2998 colon and in the assay with SF-295 CNS was over 100 µM in each case.

With `CC(C)(C)c1cc(/C=C(\C#N)C2=NCCO2)cc(C(C)(C)C)c1O`, the TGI in the assay on PC-3 prostate was 7.37 µM; in the assay on SK-MEL-5 melanoma, 5.62 µM; with HS 578T breast, 34.1 µM; with SNB-75 CNS, 7.47 µM; with OVCAR-3 ovarian it was 7.51 µM; with HOP-62 NSCLC, over 38.9 µM. In addition, the TGI in the assay with DU-145 prostate was over 40.9 µM; with KM12 colon, 15.6 µM; in the assay with MALME-3M melanoma, 19.6 µM; in the assay with HCC-2998 colon, 8.77 µM; in the assay on SF-295 CNS it was 9.8 µM.

For the compound `O=C1C(Cl)=C(Cl)C(=O)C(CCNc2nccs2)=C1Cl`, the TGI with PC-3 prostate was 42.2 µM; in the assay on SK-MEL-5 melanoma, 50.1 µM; with HS 578T breast, 75.3 µM; in the assay with SNB-75 CNS, 69.5 µM; with OVCAR-3 ovarian it was 49.8 µM; in the assay on HOP-62 NSCLC, over 100 µM. The TGI was over 100 µM in the assay on DU-145 prostate; over 100 µM in the assay with KM12 colon; 46.6 µM in the assay with MALME-3M melanoma; over 100 µM in the assay on HCC-2998 colon; over 100 µM in the assay on SF-295 CNS.
